Reference: US20220135622A1, “ANTIBACTERIAL PEPTIDES AND METHODS OF USE” (priority 2019, published 2022)
Entries after “also recorded” stand apart in the source; their conditions may differ. Like-named read-outs stand apart in the source and are kept apart here.

Legend:
E. cloacae = assay: MIC assay, E. cloacae; type: cell-based, Enterobacter cloacae; settings: Table 3; + EDTA (2 mM)
Experimental: (§1) Bacterial growth conditions. LB or Mueller Hinton II cation-adjusted broth (MHB II, BBL 212322) was prepared according to manufacturer's instructions and supplemented with arabinose at 0.02% for overnight growth or at indicated concentrations in the description of the figures. Bacterial cultures were grown at 37° C. When appropriate, media was supplemented with kanamycin (50 μg/mL), carbenicillin (50 μg/mL), chloramphenicol (12.5 or 25 μg/mL), hygromycin (200 μg/mL), and/or gentamicin (10 μg/mL).
(§2) Peptide sensitivity and MIC assays. Lyophilized peptides (Smartox Biotechnology, CPC Scientific. ABclonal) were solubilized to 10 mM in Tris buffer, pH 8, prior to making a 2-fold dilution series in MHBII cation adjusted broth with highest final assay concentration of 400-800 μM. Bacteria were grown to log phase and added to final OD600˜0.001. The final EDTA concentration was 0.5 mM for E. coli strains and 0.125 mM for USA300. The final volume of 10 μL/well in a 384 well black, clear bottom plate (Corning) was spun <1 min at <250×g and then incubated at 37° C. After 4 h, an equal volume (10 μL) of BacTiter-Glo™ (Promega) was added to each well and luminescence was read after 5 min on an EnVision plate reader (PerkinElmer). […] Plates were incubated at 37° C. for 20 h before measuring OD600 with an EnVision plate reader.

A. baumannii = type: cell-based, Acinetobacter baumannii; settings: Table 3, + EDTA (2 mM)
Outline: (§3)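 OD600 after 20 h at 37° C gives the MIC. Cells at final OD600 ~0.0002 in cation-adjusted MHB II face a 2-fold peptide series up to 400-800 μM final, with EDTA at 0.5 mM (E. coli strains) or 0.125 mM (USA300).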

[1] = Biolayer interferometry: captured biotinylated LAB peptides binding to LPS (KDO2-lipid A); settings: for Kd: LPS (KDO2-lipid A), biotinylated peptide on SA biosensor, 25° C., estimated from equilibrium responses; for selective binding to LPS over PLs: versus the major PLs found in E. coli; for binding to LPS: interferometry, above background
Experimental: (§4) Biolayer interferometry. Phospholipid (Avanti polar lipids) and KDO2-lipid A (US Biological Life Sciences) stock solutions were prepared by resuspension into 25 mM Tris pH 8, 100 mM NaCl, 0.05% LMNG buffer and solubilized overnight at 4° C. Lipid stocks were diluted prior to experiments into 25 mM Tris pH 8, 100 mM NaCl, 0.5 mg/mL BSA, 0.05% LMNG. All assays were performed at 25° C. in 25 mM Tris pH 8, 100 mM NaCl, 0.5 mg/mL BSA, 0.05% LMNG. Biotinylated-LAB peptides were loaded onto SA biosensors to a response of approximately 0.5 nm. Binding to phospholipids and KDO2-lipid A was measured at concentrations of 150, 100, 50, 25, and 10 μM with 300s association and dissociation steps. Assays were performed in triplicate on an Octet Red384 (ForteBio) and buffer and lipid signals were subtracted by using a biotin-blocked reference streptavidin (SA) biosensor. Dissociation constants for LABWT and LABWT+, interactions with KDO2-lipidA were estimated by plotting response values at equilibrium as a function of concentration and fit to a global specific binding with Hill slope model in Prism (Graphpad Software).
Based on the intriguing chemical characteristics of the LPS-PbgA interface, the possibility that a linear peptide derived from PbgA might selectively bind to LPS in vitro was considered. A peptide encompassing the lipid A-binding (LAB)-motif (209SYPMTARRFLEKHGLLD225; SEQ ID NO: 67) with an additional Gly-Ser-linker and biotin modification was generated and used in an interferometry-based assay. […] Two peptides intended to destabilize essential lipid A binding determinants were tested as controls.

P. aeruginosa = type: cell-based, Pseudomonas aeruginosa; settings: Table 3; + EDTA (2 mM)
Outline: as §3

K. pneumoniae = type: cell-based, Klebsiella pneumoniae; settings: Table 3; + EDTA (2 mM)
Outline: as §3

E. coli ΔwaaD pmrB^D149Y = assay: MIC assay, E. coli ΔwaaD pmrB^D149Y; type: cell-based, Escherichia coli; settings: Table 4; + EDTA; PMX-resistant
Experimental: as §1, §2

E. coli + FhuAΔC/Δ4L = type: cell-based, Escherichia coli; settings: Table 2; no EDTA
From the text: pFhuAΔC/Δ4L was constructed by synthesizing the fhuA coding sequence lacking the N-terminal cork domain, Δ1-160, and extracellular loops L3, L4, L5, and L11 (Mohammad, et al., J Biol Chem 286, 8000-8013, (2011)).fhuAΔcΔ4L was amplified with primers N3P-105 (encoding the bla constitutive promoter, ribosome binding site, and AUG start codon from pUC19 (New England BioLabs) and N3P-107, and cloning into pACYC184 with BamHI and HindIII (New England BioLabs).
as §1
Peptide sensitivity and MIC assays. […] After 4 h, an equal volume (10 μL) of BacTiter-Glo™ (Promega) was added to each well and luminescence was read after 5 min on an EnVision plate reader (PerkinElmer). […] Plates were incubated at 37° C. for 20 h before measuring OD600 with an EnVision plate reader.

E. coli ΔwaaD = assay: MIC assay, E. coli ΔwaaD; type: cell-based, Escherichia coli; settings: for MIC E. coli ΔwaaD + EDTA: Table 7
Experimental: as §1
(§5) Peptide sensitivity and MIC assays. Lyophilized peptides (Smartox Biotechnology, CPC Scientific. ABclonal) were solubilized to 10 mM in Tris buffer, pH 8, prior to making a 2-fold dilution series in MHBII cation adjusted broth with highest final assay concentration of 400-800 μM. Bacteria were grown to log phase and added to final OD600˜0.001. The final EDTA concentration was 0.5 mM for E. coli strains and 0.125 mM for USA300. The final volume of 10 μL/well in a 384 well black, clear bottom plate (Corning) was spun <1 min at <250×g and then incubated at 37° C. After 4 h, an equal volume (10 μL) of BacTiter-Glo™ (Promega) was added to each well and luminescence was read after 5 min on an EnVision plate reader (PerkinElmer). To measure the minimal inhibitory concentrations (MICs), bacteria from fresh overnight plates or log phase cultures were diluted with or without EDTA and peptides as described above to final OD600˜0.0002. Plates were incubated at 37° C. for 20 h before measuring OD600 with an EnVision plate reader.

wild-type E. coli strain = assay: Bacterial growth inhibition, wild-type E. coli strain; type: cell-based, Escherichia coli
Experimental: as §1, §2

E. coli imp4213 [2] = assay: MIC assay, E. coli imp4213; type: cell-based, Escherichia coli; settings: for MIC E. coli imp4213: Table 7
Outline: as §3

E. coli ΔwaaD MCR-1 = assay: MIC assay, E. coli ΔwaaD MCR-1; type: cell-based, Escherichia coli
Experimental: as §1, §5

E. coli BW25113 = type: cell-based, Escherichia coli; settings: for MIC: Table 2; for MIC E coli BW25113 + EDTA / MIC E. coli BW25113: Table 7
Outline: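 For MIC, bacteria (final OD600 ~0.0002) were incubated with 2-fold peptide dilutions (top 400–800 μM) in cation-adjusted MHB II with or without EDTA, 20 h at 37 °C, read by OD600. EDTA was 0.5 mM for E. coli and 0.125 mM for USA300. The growth-inhibition assay used log-phase cells at OD600 ~0.001, 4 h at 37 °C, BacTiter-Glo luminescence.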

S. aureus USA300 = assay: MIC assay, S. aureus USA300; type: cell-based, Staphylococcus aureus; settings: for MIC S. aureus USA300: Table 7
Outline: as §3

E. coli mcr-1 = type: cell-based, Escherichia coli; settings: Table 6
Outline: as §3

[3] = Biolayer interferometry: captured biotinylated LAB peptides binding to phospholipids; set-up: species or system E. coli; settings: above background
Experimental: as §4
Based on the intriguing chemical characteristics of the LPS-PbgA interface, the possibility that a linear peptide derived from PbgA might selectively bind to LPS in vitro was considered. […]

E. coli = assay: Cell growth inhibition assay with or without EDTA; type: cell-based, Escherichia coli; settings: irrespective of the presence or absence of EDTA (0.5 mM)
Experimental: as §5
It was reasoned that the relatively large molecular weight (>2 kDa) and limited α-helical propensity of the linear LABWT peptide (SEQ ID NO: 1) might limit its access to LPS in the bacterial OM. […]

E. coli imp4213 [4] = assay: Bacterial growth inhibition, E. coli imp4213; type: cell-based, Escherichia coli
Experimental: as §1, §2

E. coli+FhuAΔC/Δ4L = assay: Bacterial growth inhibition, E. coli+FhuAΔC/Δ4L; type: cell-based, Escherichia coli
Experimental: as §1, §2

E. coli ΔwaaD + vect. = assay: MIC assay, E. coli ΔwaaD + vect.; type: cell-based, Escherichia coli; settings: Table 7
Experimental: as §1, §5

## Ac-SYPMTARRFLEKWGLLR-NH2 [SEQ ID NO: 68, SYPMTARRFLEKWGLLR]
E. cloacae
  MIC: 100 µM
A. baumannii
  MIC: 400 µM
A. baumannii; listed as LABWT+
  MIC: 200 µM
[1]; LABWT+ relative to LABWT
  improved affinity towards LPS: ~1.5 fold
[1]
  Kd: ~55 µM
  selective binding to LPS over PLs: maintaining selectivity over PL binding
P. aeruginosa
  MIC: 400 µM
K. pneumoniae
  MIC: >400 µM
E. coli ΔwaaD pmrB^D149Y
  MIC: 100 µM
E. coli + FhuAΔC/Δ4L
  MIC: 50 µM
E. coli ΔwaaD; Table 2, no EDTA
  MIC: 400 µM
E. coli ΔwaaD; Table 4, + EDTA
  MIC: 100 µM
wild-type E. coli strain
  growth inhibition: failed to inhibit the growth
E. coli imp4213 [2]; Table 2, no EDTA
  MIC: 25 µM
E. coli ΔwaaD MCR-1; Table 4, + EDTA, PMX-resistant
  MIC: 100 µM
E. coli BW25113; + 0.5 mM EDTA
  MIC: 200 µM
E. coli BW25113; wild-type strain, no EDTA
  MIC: >800 µM
S. aureus USA300; Table 2, Gram-positive wild-type strain
  MIC: >800 µM

## Polymyxin B [reference compound]
E. coli BW25113; Table 6, E. coli K-12 wild-type parent BW25113
  Polymyxin B MIC: 0.2 µM
E. coli mcr-1
  Polymyxin B MIC: 12.5 µM

## GSSYPMDARRFLEKHGLLD (Ac-GSSYPMDARRFLEKHGLLD-NH2) [SEQ ID NO: 3]
[1]; listed as LABT213D
  binding to LPS: Neither a peptide lacking the α7 helix (LABΔα7; SEQ ID NO: 2) nor a peptide containing the T213D mutation equivalent (LABT213D; SEQ ID NO: 3) showed detectable binding to LPS or PLs above background; also recorded: failed to bind LPS in vitro
[3]
  binding to PLs: Neither a peptide lacking the α7 helix (LABΔα7; SEQ ID NO: 2) nor a peptide containing the T213D mutation equivalent (LABT213D; SEQ ID NO: 3) showed detectable binding to LPS or PLs above background
E. coli
  effect on bacterial cell growth: showed no effect on bacterial cell growth

## Ac-YPMTARRFLEKHGLLD-NH2 [compound 10]
E. coli ΔwaaD; + EDTA
  MIC E. coli ΔwaaD + EDTA: >800 µM
E. coli imp4213 [2]
  MIC E. coli imp4213: 800 µM
E. coli BW25113
  MIC E coli BW25113 + EDTA: 800 µM
E. coli BW25113; no EDTA
  MIC E. coli BW25113: >800 µM
S. aureus USA300
  MIC S. aureus USA300: >800 µM

## GSSYPMTARRFLEKHGLLD [SEQ ID NO: 1]
[1]
  Kd: ~75 µM
  selective binding to LPS over PLs: bound LPS selectively over the major PLs
E. coli imp4213 [4]
  growth inhibition: significantly impacted the growth
E. coli+FhuAΔC/Δ4L
  growth inhibition: significantly impacted the growth
wild-type E. coli strain
  growth inhibition: failed to inhibit the growth

## Ac-GSSYPMTARRFLEKWGLLD-NH2 [compound 6]
E. coli ΔwaaD; + EDTA
  MIC E. coli ΔwaaD + EDTA: >800 µM
E. coli imp4213 [2]
  MIC E. coli imp4213: 400 µM
E. coli BW25113
  MIC E coli BW25113 + EDTA: 800 µM
E. coli BW25113; no EDTA
  MIC E. coli BW25113: >800 µM
S. aureus USA300
  MIC S. aureus USA300: >800 µM

## GSSYPMTARRFLE (Ac-GSSYPMTARRFLE-NH2) [SEQ ID NO: 2]
[1]; listed as LABΔα7
  binding to LPS: Neither a peptide lacking the α7 helix (LABΔα7; SEQ ID NO: 2) nor a peptide containing the T213D mutation equivalent (LABT213D; SEQ ID NO: 3) showed detectable binding to LPS or PLs above background; also recorded: failed to bind LPS in vitro
[3]
  binding to PLs: Neither a peptide lacking the α7 helix (LABΔα7; SEQ ID NO: 2) nor a peptide containing the T213D mutation equivalent (LABT213D; SEQ ID NO: 3) showed detectable binding to LPS or PLs above background
E. coli
  effect on bacterial cell growth: showed no effect on bacterial cell growth

## Ac-GSSYPMTARRFLEKHGLL-NH2 [compound 7]
E. coli ΔwaaD; + EDTA
  MIC E. coli ΔwaaD + EDTA: 400 µM
E. coli imp4213 [2]
  MIC E. coli imp4213: 200/400
E. coli BW25113
  MIC E coli BW25113 + EDTA: 400 µM
E. coli BW25113; no EDTA
  MIC E. coli BW25113: >800 µM
S. aureus USA300
  MIC S. aureus USA300: >800 µM

## Ac-GSSYPMTARRFLEKHGL-NH2 [compound 8]
E. coli ΔwaaD; + EDTA
  MIC E. coli ΔwaaD + EDTA: 800 µM
E. coli imp4213 [2]
  MIC E. coli imp4213: 200 µM
E. coli BW25113
  MIC E coli BW25113 + EDTA: 800 µM
E. coli BW25113; no EDTA
  MIC E. coli BW25113: >800 µM
S. aureus USA300
  MIC S. aureus USA300: >800 µM

## Ac-GSSYPMTARRFLEKHGLLR-NH2 [compound 13]
E. coli ΔwaaD + vect.
  MIC E. coli ΔwaaD + vect.: 800 µM
E. coli ΔwaaD; + EDTA
  MIC E. coli ΔwaaD + EDTA: 200 µM
E. coli imp4213 [2]
  MIC E. coli imp4213: 200 µM
E. coli ΔwaaD MCR-1; Table 7
  MIC E coli ΔwaaD − MCR1: 200 µM
E. coli BW25113
  MIC E coli BW25113 + EDTA: 800 µM
E. coli BW25113; no EDTA
  MIC E. coli BW25113: >800 µM
S. aureus USA300
  MIC S. aureus USA300: >800 µM
